Data taken from patent US20050038103A1, “Uses of dorzolamide” (priority 2003, published 2005).

How the values were obtained:
[1] = Night vision of patients being treated for glaucoma; type: in vivo, human
[2] = Sponsel et al., 1997; Harris et al., 1999; cited from earlier work
[3] = cited from earlier work
[4] = Visual fields in a patient with retinitis pigmentosa; conditions: for improvement in visual field: gtts (i) ou bid
[5] = Visual acuity (Snellen's chart) in patients with age-related macular degeneration; conditions: AMD patients

Compound: CCN[C@H]1C[C@H](C)S(=O)(=O)c2sc(S(N)(=O)=O)cc21 [dorzolamide]
- night vision [1]: improved the night vision
- contrast sensitivity [2]: enhance contrast sensitivity
- perimetric light sensitivity [2]: increase perimetric light sensitivity
- capillary dye transit in macula and optic nerve head ([3]; Harris et al., 1996): enhance capillary dye transit in macula and optic nerve head
- retinal arteriovenous passage ([3]; Harris et al., 1999, 1996, 2001): accelerate retinal arteriovenous passage
- increase of ocular pulse amplitude ([3]; Schmidt et al., 1998): 18-19%
- safety ([4]; gtts (i) bid): very safe
- improvement in visual field ([4]; five weeks): marked improvement in visual field in the left eye
- improvement in visual field ([4]; nine weeks): still more marked improvement in both eyes
- safety ([5]; gtts (i) bid): very safe
- improvement in visual acuity (one more line on Snellen's chart) ([5]; gtts (i) bid in one eye, one month): Most patients demonstrated objective (and subjective) improvement in visual acuity in one month
